Laboratory results published in US20210323950A1, “HERBICIDALLY ACTIVE BICYCLIC BENZOYLPYRAZOLES” (Bayer Aktiengesellschaft, priority 2018, published 2021).

Assays:
Type in all cases: in vivo
[1] = test system: Amaranthus retroflexus (AMARE); assay: Pre-emergence herbicidal action against AMARE; details: scored visually after about 3 weeks vs untreated controls
In short: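 Formulated compounds (WP or EC) sprayed onto soil covering sown seeds, with 0.5% additive at […] water (converted). Greenhouse-grown about 3 weeks, then damage scored visually as percent versus untreated controls (100% = dead, 0% = like control).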

Setaria viridis (SETVI) [2] = assay: Pre-emergence herbicidal action against SETVI; details: scored visually after about 3 weeks vs untreated controls
Viola tricolor (VIOTR) = assay: Pre-emergence herbicidal action against VIOTR; details: scored visually after about 3 weeks vs untreated controls
In short: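 Seeds were sown in pots and covered with soil. After ~3 weeks in the greenhouse, effect was scored visually versus untreated controls (100% = plants dead, 0% = like control).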

Stellaria media (STEME) [3] = assay: Pre-emergence herbicidal action against STEME; details: scored visually after about 3 weeks vs untreated controls
In short: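 Weed seeds are sown in pots under soil, and WP or EC formulations are applied pre-emergence to the soil surface as an aqueous suspension or emulsion with 0.5% additive. After about 3 weeks in the greenhouse, effect is scored visually as % versus untreated controls (100% = plants dead, 0% = like control).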

Stellaria media (STEME) [4] = assay: Post-emergence herbicidal action against STEME; details: 20 g/ha, post-emergence at one-leaf stage, rated visually after about 3 weeks vs untreated controls
Veronica persica (VERPE) = assay: Post-emergence herbicidal action against VERPE; details: 20 g/ha, post-emergence at one-leaf stage, rated visually after about 3 weeks vs untreated controls
Experimental: VERPE: Veronica persica 2. Post-Emergence Herbicidal Action and Crop Plant Compatibility Seeds of monocotyledonous and dicotyledonous weeds and crop plants are placed in sandy loam in plastic or organic planting pots, covered with soil and cultivated in a greenhouse under controlled growth conditions. 2 to 3 weeks after sowing, the test plants are treated at the one-leaf stage. The compounds of the invention, formulated in the form of wettable powders (WP) or as emulsion concentrates (EC), are then sprayed onto the green parts of the plants as aqueous suspension or emulsion with addition of 0.5% additive at a water application rate of […] (converted). After the test plants had been kept in the greenhouse under optimum growth conditions for about 3 weeks, the activity of the preparations is rated visually in comparison to untreated controls. The tables below show the herbicidal activity of numerous compounds according to the invention against important harmful plants. For example, 100% activity=the plants have died, 0% activity=like control plants.

Setaria viridis (SETVI) [5] = assay: Post-emergence herbicidal action against SETVI; details: 20 g/ha, post-emergence at one-leaf stage, rated visually after about 3 weeks vs untreated controls
In short: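 Monocot and dicot weeds grown in sandy loam in greenhouse, sprayed post-emergence at one-leaf stage (2–3 weeks after sowing) with WP or EC formulations in water plus 0.5% additive at […] (converted). Visual rating after about 3 weeks versus untreated controls; 100% = plants dead, 0% = like control.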

Cn1ncc(C(=O)c2ccc(C(F)(F)F)c3c2OCCS3(=O)=O)c1O [Example 1-45]
Pre-emergence action against AMARE ([1]; 80 g/ha): 100%
Pre-emergence action against SETVI (Setaria viridis (SETVI) [2]; 80 g/ha): 100%
Pre-emergence action against VIOTR (Viola tricolor (VIOTR); 80 g/ha): 100%
Pre-emergence action against STEME (Stellaria media (STEME) [3]; 80 g/ha): 100%
Post-emergence action against STEME (Stellaria media (STEME) [4]): 100%
Post-emergence action against VERPE (Veronica persica (VERPE)): 90%

Cc1nn(C)c(O)c1C(=O)c1ccc(C(F)(F)F)c2c1OCC[S+]2[O-] (stereo not shown) [Example 1-40]
Pre-emergence action against AMARE ([1]; 80 g/ha): 100%
Post-emergence action against SETVI (Setaria viridis (SETVI) [5]): 80%
Pre-emergence action against SETVI (Setaria viridis (SETVI) [2]; 80 g/ha): 100%
Pre-emergence action against STEME (Stellaria media (STEME) [3]; 80 g/ha): 100%
Post-emergence action against STEME (Stellaria media (STEME) [4]): 100%

Cn1nc(C2CC2)c(C(=O)c2ccc(C(F)(F)F)c3c2OCC[S+]3[O-])c1O (stereo not shown) [Example 1-116]
Pre-emergence action against AMARE ([1]; 80 g/ha): 100%
Post-emergence action against SETVI (Setaria viridis (SETVI) [5]): 90%
Pre-emergence action against SETVI (Setaria viridis (SETVI) [2]; 80 g/ha): 100%
Pre-emergence action against VIOTR (Viola tricolor (VIOTR); 80 g/ha): 100%
Pre-emergence action against STEME (Stellaria media (STEME) [3]; 80 g/ha): 100%
Post-emergence action against STEME (Stellaria media (STEME) [4]): 100%

Cn1ncc(C(=O)c2ccc(C(F)(F)F)c3c2OCS3)c1O [Example 1-13]
Pre-emergence action against AMARE ([1]; 320 g/ha): 100%
Post-emergence action against SETVI (Setaria viridis (SETVI) [5]): 100%
Pre-emergence action against SETVI (Setaria viridis (SETVI) [2]; 320 g/ha): 100%
Pre-emergence action against VIOTR (Viola tricolor (VIOTR); 320 g/ha): 100%
Pre-emergence action against STEME (Stellaria media (STEME) [3]; 320 g/ha): 100%
Post-emergence action against STEME (Stellaria media (STEME) [4]): 100%

Cn1ncc(C(=O)c2ccc(C(F)(F)F)c3c2OCC[S+]3[O-])c1O (stereo not shown) [Example 1-30]
Pre-emergence action against AMARE ([1]; 80 g/ha): 100%
Post-emergence action against SETVI (Setaria viridis (SETVI) [5]): 90%
Pre-emergence action against SETVI (Setaria viridis (SETVI) [2]; 80 g/ha): 100%
Pre-emergence action against VIOTR (Viola tricolor (VIOTR); 80 g/ha): 100%
Pre-emergence action against STEME (Stellaria media (STEME) [3]; 80 g/ha): 100%

Cc1nn(C)c(O)c1C(=O)c1ccc(C(F)(F)F)c2c1OCCS2(=O)=O [Example 1-55]
Pre-emergence action against AMARE ([1]; 80 g/ha): 100%
Pre-emergence action against VIOTR (Viola tricolor (VIOTR); 80 g/ha): 90%
Pre-emergence action against STEME (Stellaria media (STEME) [3]; 80 g/ha): 100%
Post-emergence action against STEME (Stellaria media (STEME) [4]): 90%

Cn1ncc(C(=O)c2ccc(C(F)(F)F)c3c2OCCS3)c1O [Example 1-15]
Pre-emergence action against AMARE ([1]; 80 g/ha): 100%
Post-emergence action against SETVI (Setaria viridis (SETVI) [5]): 80%
Pre-emergence action against SETVI (Setaria viridis (SETVI) [2]; 80 g/ha): 100%
Pre-emergence action against VIOTR (Viola tricolor (VIOTR); 80 g/ha): 100%
Pre-emergence action against STEME (Stellaria media (STEME) [3]; 80 g/ha): 100%
Post-emergence action against STEME (Stellaria media (STEME) [4]): 90%

Cn1ncc(C(=O)c2ccc(C(F)(F)F)c3c2OC[S+]3[O-])c1O (stereo not shown) [Example 1-28]
Post-emergence action against SETVI (Setaria viridis (SETVI) [5]): 90%
Pre-emergence action against SETVI (Setaria viridis (SETVI) [2]; 320 g/ha): 100%
Pre-emergence action against VIOTR (Viola tricolor (VIOTR); 320 g/ha): 100%
Pre-emergence action against STEME (Stellaria media (STEME) [3]; 320 g/ha): 100%
Post-emergence action against STEME (Stellaria media (STEME) [4]): 90%
Post-emergence action against VERPE (Veronica persica (VERPE)): 90%

Cn1ncc(C(=O)c2ccc(C(F)(F)C(F)(F)F)c3c2OCS3)c1O [Example 1-128]
Pre-emergence action against AMARE ([1]; 80 g/ha): 100%
Post-emergence action against SETVI (Setaria viridis (SETVI) [5]): 90%
Pre-emergence action against SETVI (Setaria viridis (SETVI) [2]; 80 g/ha): 100%
Pre-emergence action against VIOTR (Viola tricolor (VIOTR); 80 g/ha): 100%
Pre-emergence action against STEME (Stellaria media (STEME) [3]; 80 g/ha): 100%
Post-emergence action against STEME (Stellaria media (STEME) [4]): 80%

CCn1ncc(C(=O)c2ccc(C(F)(F)F)c3c2OCC[S+]3[O-])c1O (stereo not shown) [Example 1-35]
Pre-emergence action against AMARE ([1]; 80 g/ha): 100%
Post-emergence action against SETVI (Setaria viridis (SETVI) [5]): 100%
Pre-emergence action against SETVI (Setaria viridis (SETVI) [2]; 80 g/ha): 100%
Pre-emergence action against VIOTR (Viola tricolor (VIOTR); 80 g/ha): 100%
Pre-emergence action against STEME (Stellaria media (STEME) [3]; 80 g/ha): 100%
Post-emergence action against STEME (Stellaria media (STEME) [4]): 90%

CCn1ncc(C(=O)c2ccc(C(F)(F)F)c3c2OCCS3(=O)=O)c1O [Example 1-50]
Pre-emergence action against AMARE ([1]; 80 g/ha): 100%
Post-emergence action against SETVI (Setaria viridis (SETVI) [5]): 80%
Pre-emergence action against SETVI (Setaria viridis (SETVI) [2]; 80 g/ha): 100%
Pre-emergence action against STEME (Stellaria media (STEME) [3]; 80 g/ha): 100%
Post-emergence action against STEME (Stellaria media (STEME) [4]): 80%
